Data published in US6861417B2, “Pyridin-4-YL or pyrimidin-4-YL substituted pyrazines” (SmithKline Beecham Corporation, priority 1998, dated 2005).

Molecular target: T1, CSBP/p38 (Homo sapiens, UniProt Q16539)
T1 construct: made in house; host or cells: yeast
Assay: CSBP Kinase Assay (transfer of 32P from ATP to EGFR-derived peptide T669)
Type: biochemical
Procedure: This assay measures the CSBP-catalyzed transfer of ^32P from [a-^32P]ATP to threonine residue in an epidermal growth factor receptor (EGFR)-derived peptide (T669) with the following sequence: […] (residues 661-681). (See Gallagher et al., “Regulation of Stress Induced Cytokine Production by Pyridinyl Imidazoles: Inhibition of CSPB Kinase”, BioOrganic & Medicinal Chemistry, 1997, 5, 49-64).
Reactions were carried in round bottom 96 well plate (from Corning) in a […]. Reactions contained (in final concentration): 25 mM Hepes, pH7.5; 10 mM MgCl2; 0.17 mM ATP (the Km[ATP] of p38 (see Lee et al., Nature […], n72 pg. 639-746 (December 1994) and Young et al., J. Biol. Chem. 272, n18 pg. 12116-12121 (May 1997)); 2.5 uCi of [g-32P]ATP; 0.2 mM sodium orthovanadate; 1 mM DTT; 0.1% BSA; 10% glycerol; 0.67 mM T669 peptide; and 2-4 nM of yeast-expressed, activated and purified p38. Reactions were initiated by the addition of [gamma-32P]Mg/ATP, and incubated for 25 min at 37 C. Inhibitors (dissolved in DMSO) were incubated with the reaction mixture on ice for 30 minutes prior to adding the 32P-ATP. Final DMSO concentration was 0.16%. […] Filters were washed with 75 mM phosphoric acids, and incorporated 32P was quantified using beta scintillation counter. […]

T1 sequence (Q16539 whole entry): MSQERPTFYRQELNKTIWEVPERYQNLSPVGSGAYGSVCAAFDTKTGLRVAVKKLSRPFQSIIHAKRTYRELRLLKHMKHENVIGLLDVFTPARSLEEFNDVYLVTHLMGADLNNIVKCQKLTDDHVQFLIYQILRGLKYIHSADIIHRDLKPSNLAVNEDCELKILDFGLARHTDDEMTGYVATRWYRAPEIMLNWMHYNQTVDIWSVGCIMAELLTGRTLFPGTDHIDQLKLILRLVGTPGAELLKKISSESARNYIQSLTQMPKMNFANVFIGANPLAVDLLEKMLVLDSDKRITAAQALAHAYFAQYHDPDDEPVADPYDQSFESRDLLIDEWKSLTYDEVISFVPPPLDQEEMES

IC50 (CSBP kinase assay, called "this binding assay", read-out: positive inhibitory activity, IC50) | SMILES | inhibitory activity upon retesting (upon retesting, "at this micromolar amount" (IC50 of <50 uM))
< 50 µM | Fc1ccc(-c2nccnc2-c2ccncc2)cc1 [Example 2, 2-(4-Fluorophenyl)-3-(pyridin-4-yl)pyrazine] | –
– | COc1ccc2cc(-c3nccnc3-c3ccncc3)ccc2c1 [Example 3, 2-(6-Methoxy)napthyl-2-yl-3-(4-pyridyl)pyrazine] | not found active
